Experiment: gradient 5% acetonitrile 3 min, to 50% in 2 min, to 85% in 15 min, held 3 min, 100 µL/min
Conditions: column: Zorbax Extend-C18 2.1 x 50 mm; eluents: water / acetonitrile, 0.1% formic acid
Procedure, shortened: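 Retention time was recorded from adduct peaks, which were picked computationally and each inspected manually. Pure standards ran in mixtures of ~100 molecules on HPLC coupled to a quadrupole time-of-flight mass spectrometer, in positive and negative ionization mode, through a Zorbax Extend-C18 column (2.1 × 50 mm, 1.8 μm) at 100 μL/min. Eluents were water and acetonitrile, each with 0.1% formic acid.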

Row | RP-LC retention time | Compound
1 | 668 s | O=C(Cn1nc2c3ccccc3ncn2c1=O)Nc1ccc(F)cc1F
2 | 668 s | CCOC(=O)c1c(C)[nH]c(CCC(=O)NCCOC)c1C
3 | 962 s | COc1ccc(Cn2c(=O)c3sccc3n(Cc3nc(-c4cccc(OC)c4)no3)c2=O)cc1
4 | 801 s | CCCCc1ccc(NC(=O)Cn2cnc3nc(N4CCCC(C(=O)NCC)C4)sc3c2=O)cc1 (configuration not stated)
5 | 909 s | CCOc1ccc(NC(=O)Nc2cc(C(C)C)c(O)cc2C)cc1
6 | 747 s | CCCNC(=O)N(C1CCOCC1)C1CCN(C(=O)c2ccc(C)s2)CC1
7 | 891 s | CCc1nc(-c2cc(S(=O)(=O)NCC(=O)N3CCCCC3)c(C)s2)no1
8 | 639 s | CCN1C(=O)C2CCCN2C(=O)c2ccccc21 (configuration not stated)
9 | 848 s | Cc1ccc(NC(=O)C2CCN(C(=O)c3ncn4c3COC(c3ccc(F)cc3)C4)CC2)cc1C (configuration not stated)
10 | 640 s | Cc1cc(C)n(-c2ccc(=O)n(CCNC(=O)c3cc(C)on3)n2)n1
11 | 904 s | Cc1cc(C)n(Cc2nc(-c3ccc(NC(=O)C(C)(C)C)cc3)oc2C)n1
12 | 663 s | CS(=O)(=O)N[C@H]1C[C@@H]2C[C@H]1CN2C(=O)c1ccc(C(F)(F)F)s1
13 | 843 s | O=C(Cc1ccc(Cl)s1)Nc1nnc(-c2cc3ccccc3o2)o1
14 | 783 s | O=C(C1CCCN(c2ccc(-c3ccccc3)nn2)C1)N1CCN(c2ccccc2)CC1 (configuration not stated)
15 | 975 s | Cc1ccccc1Cn1c2ccccc2c2cnn(CC(=O)NCc3ccco3)c(=O)c21
16 | 800 s | CS(=O)(=O)N1CCCc2cc(C(=O)N3CCCCCC3)ccc21
17 | 815 s | CCOCCOC(=O)c1ccc(NC(=O)C(C)(C)C)cc1
18 | 885 s | Cc1cc(S(=O)(=O)N2C[C@@H](F)C[C@H]2C(=O)N2CCCCC2)ccc1Cl
19 | 566 s | CCN(CC)CCNCc1ccc(-c2ccc(OC)c(Cl)c2)o1
20 | 678 s | Cc1ccc(NC(=O)Cn2cnc3nc(N4CCC(C(=O)NC5CC5)CC4)sc3c2=O)c(C)c1
21 | 641 s | O=S(=O)(c1ccccc1)N1CC(n2cnnc2-c2ccccc2)C1
22 | 640 s | COc1ccc(OC)c(NC(=O)CN2CCc3[nH]c4c(C)cc(F)cc4c(=O)c3C2)c1
23 | 754 s | Cc1nn(C)c(C)c1S(=O)(=O)N1CC=C(c2cn(C)c3ncccc23)CC1

Row | RP-LC retention time | Compound
24 | 874 s | Cc1ccc(S(=O)(=O)c2ccccc2[N+](=O)[O-])cc1
25 | 836 s | Cc1nc(-c2nnn(Cc3ccccc3)c2C)no1
26 | 817 s | O=C(NC1CC1)c1cc2cc(Br)ccc2[nH]1
27 | 746 s | O=C(c1cccc2c1CCN2C(=O)C1CC1)N1CCCCC1
28 | 739 s | Cc1ccc(NC(=O)Cn2nc3c(N4CCCCCC4)nccn3c2=O)cc1F
29 | 820 s | CCc1ccc(CNC(=O)C2CCCN(c3nccc(C)n3)C2)cc1 (configuration not stated)
30 | 741 s | O=C(Cc1nnc(-c2ccc3ncccc3c2)o1)Nc1ccc(F)c(F)c1
31 | 852 s | CC(Oc1ccccc1)c1nc(-c2ccc3c(c2)nnn3CCC(=O)N2CCOCC2)no1 (configuration not stated)
32 | 926 s | Cc1ccc(CN2CCN(C3CCN(S(=O)(=O)c4ccc(F)c(Cl)c4)CC3)C(=O)C2=O)cc1
33 | 1270 s | Brc1ccc(-c2noc(Cc3nc(-c4ccc5c(c4)OCO5)cs3)n2)cc1
34 | 815 s | COc1ccccc1Cn1cc(C(=O)c2ccccc2)c(=O)c2cc3c(cc21)OCCO3
35 | 622 s | CC(C)(C)C(O)CCNC(=O)C(=O)NC1CC1 (configuration not stated)
36 | 844 s | CN(Cc1ccco1)C(=O)c1c2c(nc3ccccc13)C(=O)N(C1CCCCC1)C2
37 | 654 s | CCN1C(=O)c2cccnc2Sc2cc(CNC(=O)c3ccc(NC(C)=O)cc3)ccc21
38 | 679 s | CC1CN(C(=O)N2CCC(C(=O)N3CCC(C(N)=O)CC3)CC2)c2cc(Cl)ccc2O1 (configuration not stated)
39 | 817 s | COCCCN1C(=O)c2ccc(-c3ccco3)n2CC1(C)C(=O)NCc1ccccc1 (configuration not stated)
40 | 1060 s | CCOc1ccc(S(=O)(=O)N2CCC(C(=O)Nc3ccc(Br)cc3F)CC2)cc1
41 | 634 s | CCCNC(=O)CCc1cc2cc(OC)ccc2[nH]c1=O
42 | 623 s | Cc1ccc2oc(N3CCN(C(=O)c4cccc(-c5noc(C)n5)c4)CC3)nc2n1
43 | 630 s | Cc1ccc(-c2noc(C3CCCCN3)n2)cc1 (configuration not stated)
44 | 865 s | O=C(Cc1ccsc1)N1CCC2(CC1)N=C(c1ccc(Cl)cc1)NO2
45 | 698 s | Cc1c(-c2ccccc2)nc2ccc(Br)cc2c1C(=O)O
46 | 763 s | Cc1cc(C(=O)N2CCC(c3nc4ccccc4s3)CC2)no1

Row | RP-LC retention time | Compound
47 | 519 s | CCN1CCN(C(=S)Nc2ccc3nc(N4CCN(CC)CC4)cc(C)c3c2)CC1
48 | 847 s | O=C(C1CCC1)N1CCc2sc(S(=O)(=O)NCc3ccccc3)cc2C1
49 | 604 s | COc1cccc(CC(=O)N2CCC(Nc3ncnc4c3CCC4)C2)c1 (configuration not stated)
50 | 683 s | O=C(CN1CCN(Cc2cccc(Cl)c2)C1=O)NC1CC1
51 | 763 s | CCCCNC(=O)Cc1csc(-n2nc(C)c(Cl)c2C)n1
52 | 876 s | NC(=O)C1CCN(c2nc3ccccc3nc2S(=O)(=O)Cc2ccc(Cl)cc2)CC1
53 | 828 s | O=C(O)c1ccc(N2CCOCC2)c(NC(=O)c2ccc(Br)cc2)c1
54 | 664 s | CC1(CNC(=O)c2ccc3c(c2)OCO3)CCOCC1
55 | 656 s | COCCn1ccc2nc(C)c(C(=O)NCc3cccs3)cc2c1=O
56 | 769 s | O=S(=O)(Nc1cccc(-c2cn3cccnc3n2)c1)c1ccc(Br)cc1
57 | 1070 s | CCOC(=O)c1noc2ncnc(N3CCN(c4ccccc4F)CC3)c12
58 | 905 s | O=C(CN1C(=O)CCCc2cc(S(=O)(=O)N3CCCCCC3)ccc21)NCc1ccccc1
59 | 964 s | COc1ccccc1NC(=O)C1CCCN(S(=O)(=O)c2cc(-c3noc(C)n3)cs2)C1 (configuration not stated)
60 | 855 s | COC(=O)c1ccccc1NC(=O)NCc1ccccc1
61 | 885 s | COc1ccccc1NS(=O)(=O)c1ccc2c(c1)C(=O)N(C)c1ncccc1O2
62 | 880 s | CCn1cc(C(=O)NCc2ccccc2)c(S(=O)(=O)N2CCSCC2)n1
63 | 909 s | CCOC(=O)c1cn(Cc2ccccc2C)c2nc(C)ccc2c1=O
64 | 838 s | O=C(CN1N=C(C(=O)Nc2ccc(F)cc2)CCC1=O)Nc1ccc(F)c(F)c1
65 | 820 s | Cc1nc2ccc(Cl)cn2c1[N+](=O)[O-]
66 | 962 s | CCOc1ccccc1-c1noc(CN2N=NC3C(=O)N(c4cc(OC)cc(OC)c4)C(=O)C32)n1 (configuration not stated)
67 | 616 s | CC(C)Cn1c(=O)c(N2CCN(C(=O)NCc3ccco3)CC2)nc2ccncc21
68 | 1080 s | Cc1ccccc1-n1c(=O)c2sccc2n(Cc2nc(-c3ccc(C(C)(C)C)cc3)no2)c1=O
69 | 776 s | O=C(Cn1cccn1)NCc1ccc(OCc2ccccc2)cc1

Row | RP-LC retention time | Compound
70 | 578 s | O=C(Nc1c(-c2ccc(F)cc2)nc2ccccn12)C1CC1
71 | 787 s | CC(C)CNC(=O)c1nnc(-c2ccc(S(=O)(=O)N(C)C)cc2)o1
72 | 620 s | O=C(CN1CCc2nc(NC(=O)C3CC3)sc2C1)Nc1ccccc1C(F)(F)F
73 | 995 s | COc1cccc(-c2nc(-c3cn(Cc4cccc(F)c4)nn3)no2)c1
74 | 914 s | Cc1ccc(NC(=O)COc2cc(C)nc(N3CCN(c4ccccc4)CC3)n2)c(C)c1
75 | 690 s | CC(C)(C)C(O)CCNC(=O)Nc1ccc2c(c1)OCO2 (configuration not stated)
76 | 906 s | Cc1noc(-c2ccc(OC3CN(C(=O)CC4CCCC4)C3)cc2)n1
77 | 1180 s | Cc1ccccc1-c1nc(C2CCN(S(=O)(=O)c3ccc(F)cc3)CC2)no1
78 | 850 s | CCCC(=O)N1CC(c2nc(-c3ccccc3)no2)C2(CCOCC2)C1 (configuration not stated)
79 | 594 s | Cc1ccc2c(Nc3ccc(F)cc3)c(C(=O)N3CCCC3)cnc2n1
80 | 872 s | Cc1ccc(-c2nc(N)n(C(=O)C3CC3)n2)cc1
81 | 970 s | COc1cccc(Cn2c(C(=O)N3CCC(C(=O)NCc4ccc(C)o4)CC3)cc3ccsc32)c1
82 | 803 s | Cc1nnc(-c2cn(CC(=O)NCCC3=CCCCC3)c3ccccc23)o1
83 | 666 s | COCCCN1C(=O)CC(N2CCN(c3ccc(F)cc3)CC2)C1=O (configuration not stated)
84 | 601 s | O=C(NCCN1CCCCCC1)c1ccc2c(c1)NC(=O)C1CCCCN21 (configuration not stated)
85 | 563 s | COc1ccc(Nc2nc(N(C)C)nc3nccnc23)cc1
86 | 1150 s | COc1cccc(C2Cn3nnc(-c4nc(-c5ccccc5Cl)no4)c3CO2)c1 (configuration not stated)
87 | 608 s | CC(C)(C)c1ccc(OCC(O)CN2CCN(C(=O)c3ccccc3)CC2)cc1 (configuration not stated)
88 | 766 s | O=C(NC1CCN(c2ccccc2)C1=O)c1ccccc1Br (configuration not stated)
89 | 722 s | O=C(CN1C(=O)c2ccccc2C1=O)NCc1nnnn1-c1ccc(Cl)cc1
90 | 581 s | CC(=O)N(C)Cc1nc2ccccc2n1CC(=O)N1CCCC1

Row | Compound | RP-LC retention time
91 | COc1ccc2c(CCN)c[nH]c2c1 | 565 s
92 | CN1CC=C(c2noc(CCC(=O)NCc3ccc4c(c3)OCO4)n2)CC1 | 587 s
